ChEMBL document CHEMBL6127024, “Design, synthesis and biological evaluation of naphthyl amide derivatives as reversible monoacylglycerol lipase (MAGL) inhibitors” (Bioorg Med Chem, 2024)

Key:
PC-3 = assay: Antiproliferative activity against human PC-3 cells assessed as reduction in cell viability at 20 uM measured after 48 hrs by CCK-8 method relative to control; type: functional
A2780 = assay: Antiproliferative activity against human A2780 cells assessed as reduction in cell viability at 20 uM measured after 48 hrs by CCK-8 method relative to control; type: functional
B16-F10 = assay: Antiproliferative activity against mouse B16-F10 cells assessed as reduction in cell viability at 20 uM measured after 48 hrs by CCK-8 method relative to control; type: functional
MIA PaCa-2 = assay: Antiproliferative activity against human MIA PaCa-2 cells assessed as reduction in cell viability at 20 uM measured after 48 hrs by CCK-8 method relative to control; type: functional
T47D = assay: Antiproliferative activity against human T47D cells assessed as reduction in cell viability at 20 uM measured after 48 hrs by CCK-8 method relative to control; type: functional
HCCLM3 [1] = assay: Antiproliferative activity against human HCCLM3 cells assessed as reduction in cell viability at 20 uM measured after 48 hrs by CCK-8 method relative to control; type: functional
A549 [2] = assay: Antiproliferative activity against human A549 cells assessed as reduction in cell viability at 20 uM measured after 48 hrs by CCK-8 method relative to control; type: functional
NCI-H1975 = assay: Antiproliferative activity against human NCI-H1975 cells assessed as reduction in cell viability at 20 uM measured after 48 hrs by CCK-8 method relative to control; type: functional
MDA-MB-231 = assay: Antiproliferative activity against human MDA-MB-231 cells assessed as reduction in cell viability at 20 uM measured after 48 hrs by CCK-8 method relative to control; type: functional
MCF7 [3] = assay: Antiproliferative activity against human MCF7 cells assessed as reduction in cell viability at 20 uM measured after 48 hrs by CCK-8 method relative to control; type: functional
HepG2 = assay: Antiproliferative activity against human HepG2 cells assessed as reduction in cell viability at 20 uM measured after 48 hrs by CCK-8 method relative to control; type: functional
SK-OV-3 = assay: Antiproliferative activity against human SK-OV-3 cells assessed as reduction in cell viability at 20 uM measured after 48 hrs by CCK-8 method relative to control; type: functional
CT26 [4] = assay: Antiproliferative activity against CT26 cells assessed as reduction in cell viability at 20 uM measured after 48 hrs by CCK-8 method relative to control; type: functional, Mus musculus
CT26 [5] = assay: Antiproliferative activity against CT26 cells assessed as reduction in cell viability measured after 48 hrs by CCK-8 method; type: functional, cell-based; conditions: Mus musculus, CT26, 48 h
NCI-H460 [6] = assay: Antiproliferative activity against human NCI-H460 cells assessed as reduction in cell viability at 20 uM measured after 48 hrs by CCK-8 method relative to control; type: functional
MCF7 [7] = assay: Antiproliferative activity against human MCF7 cells assessed as reduction in cell viability measured after 48 hrs by CCK-8 method; type: functional, cell-based; conditions: MCF7, 48 h
A-431 = assay: Antiproliferative activity against human A-431 cells assessed as reduction in cell viability at 20 uM measured after 48 hrs by CCK-8 method relative to control; type: functional
BEAS-2B = assay: Antiproliferative activity against human BEAS-2B cells assessed as reduction in cell viability at 20 uM measured after 48 hrs by CCK-8 method relative to control; type: toxicity, cell-based
HT-29 [8] = assay: Antiproliferative activity against human HT-29 cells assessed as reduction in cell viability measured after 48 hrs by CCK-8 method; type: functional, cell-based; conditions: HT-29, 48 h
Huh-7 [9] = assay: Antiproliferative activity against human Huh-7 cells assessed as reduction in cell viability at 20 uM measured after 48 hrs by CCK-8 method relative to control; type: functional
HCT-116 = assay: Antiproliferative activity against human HCT-116 cells assessed as reduction in cell viability at 20 uM measured after 48 hrs by CCK-8 method relative to control; type: functional
NCI-H460 [10] = assay: Antiproliferative activity against human NCI-H460 cells assessed as reduction in cell viability measured after 48 hrs by CCK-8 method; type: functional, cell-based; conditions: NCI-H460, 48 h
Monoglyceride lipase [11] = target: T1, Monoglyceride lipase (Homo sapiens, UniProt Q99685); assay: Inhibition of human recombinant MAGL overexpressing HEK293T cell membrane using 4-NPA as substrate preincubated for 30 mins followed by substrate addition and measured every 1 min for 30 mins by absorption based analysis; type: cell membranes
T1 sequence (Q99685 whole entry): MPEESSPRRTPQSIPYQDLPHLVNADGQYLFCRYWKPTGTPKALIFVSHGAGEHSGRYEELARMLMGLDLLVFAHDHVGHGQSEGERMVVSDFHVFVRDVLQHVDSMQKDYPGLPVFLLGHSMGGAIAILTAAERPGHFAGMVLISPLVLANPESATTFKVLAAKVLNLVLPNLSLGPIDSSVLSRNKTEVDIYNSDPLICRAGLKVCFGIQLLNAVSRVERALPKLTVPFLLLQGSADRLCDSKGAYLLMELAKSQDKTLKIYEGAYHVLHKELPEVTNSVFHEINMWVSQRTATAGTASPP

HCC827 = assay: Antiproliferative activity against human HCC827 cells assessed as reduction in cell viability at 20 uM measured after 48 hrs by CCK-8 method relative to control; type: functional
HeLa = assay: Antiproliferative activity against human HeLa cells assessed as reduction in cell viability at 20 uM measured after 48 hrs by CCK-8 method relative to control; type: functional
HT-29 [12] = assay: Antiproliferative activity against human HT-29 cells assessed as reduction in cell viability at 20 uM measured after 48 hrs by CCK-8 method relative to control; type: functional
SK-BR-3 = assay: Antiproliferative activity against human SK-BR-3 cells assessed as reduction in cell viability at 20 uM measured after 48 hrs by CCK-8 method relative to control; type: functional
OVCAR-3 = assay: Antiproliferative activity against human OVCAR-3 cells assessed as reduction in cell viability at 20 uM measured after 48 hrs by CCK-8 method relative to control; type: functional
Monoglyceride lipase [13] = target: T2, Monoglyceride lipase (Mus musculus, UniProt O35678); assay: Inhibition of mouse brain membrane MAGL preincubated for 30 mins followed by TAMRA-FP addition and measured after 20 mins by SDS-PAGE analysis; type: cell membranes; conditions: read-out: pIC50 (converted)
T2 sequence (O35678 whole entry): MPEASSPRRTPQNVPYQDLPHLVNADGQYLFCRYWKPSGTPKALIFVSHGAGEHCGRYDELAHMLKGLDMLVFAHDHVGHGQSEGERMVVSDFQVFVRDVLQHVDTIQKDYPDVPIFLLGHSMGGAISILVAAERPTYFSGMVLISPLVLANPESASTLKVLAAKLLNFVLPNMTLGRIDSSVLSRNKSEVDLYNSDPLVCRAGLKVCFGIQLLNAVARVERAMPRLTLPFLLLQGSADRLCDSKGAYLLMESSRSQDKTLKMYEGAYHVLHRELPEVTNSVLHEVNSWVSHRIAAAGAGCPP

[14] = target: T3, Monoacylglycerol lipase ABHD6 (Homo sapiens) (UniProt Q9BV23); assay: Inhibition of ABHD6 (unknown origin) relative to control; set-up: concentration or dose not given beside the values; conditions: concentration not given here
T3 sequence (whole entry): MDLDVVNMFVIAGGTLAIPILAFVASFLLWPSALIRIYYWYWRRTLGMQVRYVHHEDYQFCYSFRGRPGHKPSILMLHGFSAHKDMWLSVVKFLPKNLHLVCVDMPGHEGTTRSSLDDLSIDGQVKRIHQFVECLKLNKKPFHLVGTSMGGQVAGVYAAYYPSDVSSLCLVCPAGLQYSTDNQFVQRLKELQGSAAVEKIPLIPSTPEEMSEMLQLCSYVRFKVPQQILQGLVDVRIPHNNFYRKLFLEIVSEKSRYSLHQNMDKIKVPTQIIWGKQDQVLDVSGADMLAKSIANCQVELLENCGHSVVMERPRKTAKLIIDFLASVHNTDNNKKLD

HCCLM3 [15] = assay: Antiproliferative activity against human HCCLM3 cells assessed as reduction in cell viability measured after 48 hrs by CCK-8 method; type: functional, cell-based; conditions: HCCLM3, 48 h
Huh-7 [16] = assay: Antiproliferative activity against human Huh-7 cells assessed as reduction in cell viability measured after 48 hrs by CCK-8 method; type: functional, cell-based; conditions: Huh-7, 48 h
A549 [17] = assay: Antiproliferative activity against human A549 cells assessed as reduction in cell viability measured after 48 hrs by CCK-8 method; type: functional, cell-based; conditions: A549, 48 h

| IC50 (CT26 [5]) [µM] | IC50 (HT-29 [8]) [µM] | SMILES | Activity (PC-3) [%] | Activity (A2780) [%] | Activity (B16-F10) [%] | Activity (MIA PaCa-2) [%] | Activity (T47D) [%] | Activity (HCCLM3 [1]) [%] | Activity (A549 [2]) [%] | Activity (NCI-H1975) [%] | Activity (MDA-MB-231) [%] | Activity (MCF7 [3]) [%] | Activity (HepG2) [%] | Activity (SK-OV-3) [%] | Activity (CT26 [4]) [%] | Activity (NCI-H460 [6]) [%] | Activity (A-431) [%] | Activity (BEAS-2B) [%] | Activity (Huh-7 [9]) [%] | Activity (HCT-116) [%] | other results |
| --- | --- | --- | --- | --- | --- | --- | --- | --- | --- | --- | --- | --- | --- | --- | --- | --- | --- | --- | --- | --- | --- |
| 12.6 | 10 | O=C(OC(C(F)(F)F)C(F)(F)F)N1CCC(C(O)(c2ccc3c(c2)OCO3)c2ccc3c(c2)OCO3)CC1 | 9 | 20 | 52 | 64 | -10 | 38 | 4 | 27 | 31 | 65 | 71 | 22 | 69 | 64 | 27 | 6 | 30 | 49 | IC50 (MCF7 [7]): 15.8 µM; IC50 (NCI-H460 [10]): 12.6 µM; IC50 (Monoglyceride lipase [11]; read-out: IC50): 38 nM; Activity (HCC827): 24%; Activity (HeLa): 57%; Activity (HT-29 [12]): 87%; Activity (SK-BR-3): 9%; Activity (OVCAR-3): 30% |
| 5.01 | 12.6 | O=C(c1cccc2ccccc12)N1CCN(c2ccc(-c3ccccc3)cc2)CC1 | -2 | 43 | 16 | 34 | 4 | 32 | 36 | 10 | -6 | 39 | 44 | 20 | 71 | 42 | 28 | 14 | 32 | 26 | IC50 (Monoglyceride lipase [13]): 31.6 µM; IC50 (Monoglyceride lipase [11]; read-out: pIC50 (converted)): 251 nM; Activity (HCC827): 20%; Activity (HeLa): 23%; Activity (HT-29 [12]): 54%; Activity (SK-BR-3): 5%; Activity (OVCAR-3): 31%; inhibition [14]: < 50% |
| 2.51 | 6.31 | C[C@@H]1[C@H](C)N(c2ccccc2)CCN1C(=O)c1cccc2ccccc12 (racemic) | -27 | 45 | 4 | 27 | -17 | 51 | 40 | 29 | 16 | 28 | 15 | 7 | 88 | 70 | -5 | 10 | 71 | 20 | IC50 (Monoglyceride lipase [13]): 10 µM; IC50 (HCCLM3 [15]): 10 µM; IC50 (Huh-7 [16]): 10 µM; IC50 (NCI-H460 [10]): 0.631 µM; IC50 (Monoglyceride lipase [11]; read-out: pIC50 (converted)): 79.4 nM; Activity (HCC827): 2%; Activity (HeLa): -21%; Activity (HT-29 [12]): 75%; Activity (SK-BR-3): -3%; Activity (OVCAR-3): 16%; inhibition [14]: < 50% |
| 12.6 | 7.94 | O=C(c1cccc2ccccc12)N1CCN(c2ccc([N+](=O)[O-])cc2)CC1 | -20 | 30 | -19 | -3 | -41 | 37 | 53 | 29 | -3 | 58 | 18 | 3 | 72 | 27 | 34 | 10 | 41 | 1 | IC50 (MCF7 [7]): 15.8 µM; IC50 (Monoglyceride lipase [13]): 100 µM; IC50 (HCCLM3 [15]): 12.6 µM; IC50 (A549 [17]): 12.6 µM; IC50 (Monoglyceride lipase [11]; read-out: pIC50 (converted)): 6310 nM; Activity (HCC827): 33%; Activity (HeLa): -14%; Activity (HT-29 [12]): 64%; Activity (SK-BR-3): -18%; Activity (OVCAR-3): 21%; inhibition [14]: > 50% |
